We go through 16 molecules from ChEMBL document CHEMBL5252513, “Identification of a Benzoisoxazoloazepine Inhibitor (CPI-0610) of the Bromodomain and Extra-Terminal (BET) Family as a Candidate for Human Clinical Trials” (J Med Chem, 2016).

The nature of series [1]: Intrinsic clearance in rat liver microsomes. The format is ADME, Microsome. (Liver microsomes are a subcellular fraction often used to study metabolism.)
Series [2] in a line: Protein binding in mouse plasma. Format: ADME, cell-free. The conditions noted are these: read-out: PPB (converted).
For series [3], the target named is T1, Bromodomain-containing protein 4 (Homo sapiens, UniProt O60885). As to the kind of experiment: Inhibition of BRD4 BD1 (unknown origin) using biotinylated ligand incubated for 60 mins by TR-FRET assay. On the technique in general: Time-resolved FRET reads energy transfer from a long-lived donor to a nearby acceptor.
Series [4] deals with T1, Bromodomain-containing protein 4. As to the kind of experiment: Inhibition of BRD4 BD1 in human MV4-11 cells assessed as reduction of MYC RNA expression after 4 hrs by PCR analysis. Format: cell-based.
Series [5] in a line: Intrinsic clearance in mouse liver microsomes. The format is ADME, Microsome. The note with it: read-out: CLH.
Series [6] is described as follows: Protein binding in human plasma. The format is ADME, cell-free. The conditions noted are these: read-out: PPB (converted).
The nature of series [7]: Intrinsic clearance in human liver microsomes. Format: ADME, Microsome. The note with it: read-out: CLH.
The nature of series [8]: Protein binding in rat plasma. The format is ADME, cell-free. The note with it: read-out: PPB (converted).
Series [9] in a line: Protein binding in dog plasma. Format: ADME, cell-free, Canis lupus familiaris. The conditions noted are these: read-out: PPB (converted).
Series [10] in a line: Intrinsic clearance in dog liver microsomes. Format: ADME, Canis lupus familiaris, Microsome. The note with it: read-out: CLH.

What is called IC50 is the point on the concentration scale where inhibition reaches its midpoint. Broadly, the EC50 is the concentration needed to bring the measured effect to its halfway point. Take `CCNC(=O)NC1N=C(c2ccc(Cl)cc2)c2ccccc2-c2c(C)noc21` (stereo not drawn): the predicted hepatic clearance (CLH) in series [1] is 29 mL/min/kg. Also, the fraction unbound in [2] is 0.03; in series [6], 0.03; in series [8], 0.02; in series [9], 0.02. Besides, half-maximal inhibition in series [3] (IC50) was put at 33 nM. The EC50 in [4] came to 100 nM. Further, the values for the predicted hepatic clearance in [5], in series [7] and in [10] were 38 mL/min/kg, 13 mL/min/kg and 21 mL/min/kg, respectively.
`COc1ccc(C2=N[C@@H](CC(N)=O)c3onc(C)c3-c3ccccc32)cc1`: the predicted hepatic clearance (CLH) in series [1] was 33 mL/min/kg. The fraction unbound in series [2] is 0.11; in series [6] it was 0.12; in series [8] it was 0.21; in series [9], 0.14. This molecule gave an IC50 in series [3] of 48 nM. Moreover, the EC50 in series [4] was determined as 170 nM. The predicted hepatic clearance in [5] was 83 mL/min/kg; in series [7], 8 mL/min/kg; in [10], 26 mL/min/kg.
In series [3], `COc1nccc2c1C(c1ccc(Cl)cc1)=NCc1onc(C)c1-2` had an IC50 of 440 nM.
In series [3], `Cc1onc2c1-c1ccccc1C(c1ccc(Cl)cc1)=NC2` returned an IC50 of 1300 nM.
On to `Cc1noc2c1-c1ccccc1C(c1ccccc1)=N[C@H]2CC(N)=O`, for which the predicted hepatic clearance (CLH) in series [1] is 28 mL/min/kg. Further, the fraction unbound in series [2] was 0.16; in series [6], 0.19; in series [8] it was 0.2; in series [9], 0.12. In [3], this molecule returned an IC50 of 110 nM. The EC50 in series [4] was determined as 250 nM. The predicted hepatic clearance in series [5] is 10 mL/min/kg; in [7], < 5 mL/min/kg; in series [10] it was 17 mL/min/kg.
For `Cc1noc2c1-c1ccccc1C(c1ccc(Cl)cc1)=NC2`, the predicted hepatic clearance (CLH) in series [1] is 40 mL/min/kg. In addition, the fraction unbound in series [2] was 0.01; in series [6] it was 0.01; in series [8], 0.01; in [9], < 0.01. The predicted hepatic clearance in series [5] was 52 mL/min/kg; in [7], 15 mL/min/kg; in [10] it was 29 mL/min/kg.
With `Cc1noc2c1-c1ccccc1C(c1ccc(Cl)cc1)=NC2C(N)=O` (stereo not drawn), the predicted hepatic clearance (CLH) in [1] was 27 mL/min/kg. For the same molecule, the values for the fraction unbound in [2], in series [6] and in series [9] were 0.01, 0.02 and 0.02, respectively. Moreover, the IC50 in series [3] came out at 15000 nM. Further, the EC50 in series [4] is 4000 nM. Moreover, the results for the predicted hepatic clearance in series [5], in [7] and in series [10] were 32 mL/min/kg, 20 mL/min/kg and 29 mL/min/kg, respectively.
In turn, `CNc1ccc2c(n1)C(c1ccc(Cl)cc1)=NCc1onc(C)c1-2` came in with an IC50 in series [3] of 59 nM. Further, the EC50 in [4] came to 440 nM.
On to `Cc1noc2c1-c1ccc(=O)n(C)c1C(c1ccc(Cl)cc1)=NC2`, for which the IC50 in [3] was determined as 750 nM. For the same molecule, the EC50 in series [4] worked out at 2900 nM.
In the same order, the values of `Cc1noc2c1-c1c[nH]c(=O)cc1C(c1ccc(Cl)cc1)=NC2` are 530 nM and 1100 nM.
In turn, `Cc1nnc2n1-c1ccccc1C(c1ccc(Cl)cc1)=NC2` yielded an IC50 in series [3] of 1800 nM.
On to `Cc1noc2c1-c1ccccc1C(c1ccc(Cl)cc1)=N[C@@H]2CC(=O)OC(C)(C)C`, for which, in [3], the IC50 was > 80000 nM.
For the molecule `Cc1nsc2c1C(c1ccc(Cl)cc1)=NCc1onc(C)c1-2`, the IC50 in [3] is > 80000 nM. The EC50 in series [4] was > 4000 nM.
Molecule `Cc1noc(N)c1-c1ccccc1` yielded an IC50 in [3] of 20000 nM.
With `Cc1noc2c1-c1ccccc1C(c1ccc(Cl)cc1)=NN2`, in [3], the IC50 was 880 nM. Compared with the last molecule, the IC50 is about 23-fold lower.
Molecule `Cc1noc2c1-c1cn(C)nc1C(c1ccc(Cl)cc1)=NC2` gave an IC50 in series [3] of 590 nM. Besides, the EC50 in [4] was found to be 2600 nM.
